A short description of data set [1]: In vivo pharmacokinetics in beagle dogs after single administration. Here is the method: Male beagle dogs were used as test animals, the concentration of the compound in blood after single administration was determined to evaluate the pharmacokinetic behavior.
Beagle dogs (Male, 6-12 kg, more than 6 months, Beijing Marshall Biotechnology Co., Ltd.).
The objective of the test was to study the pharmacokinetic characteristics of the test compound in non-rodent after intravenous injection and oral administration. In the experiment, the test compound was prepared into a clear solution or homogeneous suspension and administered to the beagle dogs by single intravenous injection or oral administration. In the intravenous injection group, the menstruum was a certain proportion of dimethyl sulfoxide in HP-β-cyclodextrin solution or a certain proportion of ethanol, polyethylene glycol 400 and physiological saline solution, the mixture was vortexed and subjected to ultrasonic treatment to prepare 2 mg/mL or […] clear solution, then filtered with microporous membrane for later use; in the oral administration group, the menstruum was a certain proportion of dimethyl sulfoxide in HP-β-cyclodextrin solution or a certain proportion of sodium carboxymethyl cellulose solution, the test compound was mixed with the menstruum, vortexed and subjected to ultrasonic treatment to prepare 2 mg/mL clear solution or 1 mg/mL homogeneous suspension for later use. After 2 mg/kg or 1 mg/kg intravenous administration or 10 mg/kg or 5 mg/kg oral administration to the Beagle dogs, a certain amount of whole blood samples were collected, centrifuged at 3000 g for 10 minutes, and the supernatant was separated to obtain plasma samples; then an acetonitrile solution containing internal standard with a volume 10 times that of the plasma sample was added to precipitate proteins, and then centrifuged; the supernatant was separated for analysis; LC-MS/MS analysis method was used to quantitatively analyze the blood drug concentration, and Phoenix WinNonlin software (Pharsight, USA) was used to calculate the pharmacokinetic parameters, such as peak concentration, time to peak concentration, clearance rate, half-life, area under the concentration-time curve, bioavailability, etc.
Among them, C0 is the initial concentration, T1/2 is the elimination half-life, Vdss is the steady-state apparent volume of distribution, Cl is the total clearance rate, AUC0-inf is the area under the plasma drug concentration-time curve from time 0 to infinity, Cmax is the peak concentration, Tmax is the time to peak concentration.

A further data set concerns plasma protein. Nature of the data set: Plasma protein binding rate (PPB) test, SD rat plasma. Conditions: 2 μM, dialysis 37° C. 4 hours. In kind it is in vitro ADME. Here is the method: The protein binding rates of the test compound in the plasma of humans, SD rats and Beagle dogs were determined.
796 μL of blank plasma from humans, SD rats and Beagle dogs (plasma purchased from BioreclamationIVT) were taken, 4 μL of working solution of the test compound (400 μM) or warfarin working solution (400 μM) was added and the final concentration of the test compound or warfarin was 2 μM. The sample was mixed thoroughly. The final concentration of organic phase DMSO was 0.5%; 50 μL of the plasma sample treated with the test compound or warfarin was pipetted into the sample receiving plate, and a corresponding volume of blank plasma or buffer was added immediately so that the final volume in each sample well was 100 μL, the volume ratio of plasma:dialysis buffer was 1:1; 400 μL of stop solution was added to these samples, and these samples were used as T0 samples for recovery and stability determination. To samples were stored at 2° C. to 8° C. for subsequent processing together with other dialyzed samples; 150 μL of the plasma sample treated with the test compound or warfarin was added into the dosing end of each dialysis hole, and 150 μL of blank dialysis buffer was added to the receiving end corresponding to the dialysis hole. Then the dialysis plate was sealed with gas-permeable membrane and placed in a humidified 5% CO2 incubator, and incubated at 37° C. with 100 rpm shaking for 4 hours. After the dialysis, 50 μL of the dialysis buffer sample and the dialysis plasma sample was transferred to a new sample receiving plate. […] All samples were analyzed by LC/MS/MS after protein precipitation, and the plasma protein unbound rate, binding rate and recovery rate was calculated according to the following formula: % unbound rate=100*free compound concentration at the membrane buffer side/total compound concentration at the membrane plasma side, % protein binding rate=100-% unbound rate, % recovery rate=100*(free compound concentration at the membrane buffer side+total compound concentration at the membrane plasma side)/total compound concentration before dialysis.

A short description of data set [2]: In vivo pharmacokinetics in mice after single administration. On the set-up: species or system CD-1 mice. Here is the method:
Male CD-1 mice were used as test animals, the concentration of the compound in blood was determined after single administration to evaluate the pharmacokinetic behavior.
CD-1 mice (male, 20-40 g, 6-9 weeks, Shanghai Sippr-Bk Laboratory Animal Co., Ltd.)
The pharmacokinetic characteristics of the test compound in rodents after intravenous injection and oral administration were tested by standard protocols, in the experiment, the test compound was prepared into a clear solution or homogeneous suspension, and administered to the mice by single intravenous injection and oral administration. […] The plasma sample was added to acetonitrile solution containing the internal standard with a volume 20 times that of the plasma sample to precipitate proteins, and then centrifuged; the supernatant was separated, and water with a volume twice that of the supernatant was added to the supernatant, which was then centrifuged again; the supernatant was collected for analysis; LC-MS/MS analysis method was used to quantitatively analyze the blood drug concentration, and Phoenix WinNonlin software (Pharsight, USA) was used to calculate the pharmacokinetic parameters, such as peak concentration, time to peak concentration, clearance rate, half-life, area under the concentration-time curve, bioavailability, etc. […]

The mark [3] stands for this setting: male, beagle, dog, plasma, 10 mg/kg, dogs, 10 mpk oral administration.

As usually defined, the AUC(0-inf) is the area under the concentration-time curve extrapolated to infinity. For orientation: Cmax means the highest concentration seen after dosing. One may read the Tmax as the time from dosing to the highest level. The term bioavailability denotes dose-corrected exposure relative to a reference, in per cent. Higher therefore signals much systemic uptake. As usually defined, the half-life is the time in which the quantity being followed falls by half. Lower therefore signals rapid decline. Consider `COCCN1C[C@@H](n2ccc(F)c2)[C@H](NC(=O)Nc2c(C)c(-c3cnc(C4(F)COC4)nc3)nn2-c2ccccc2)C1` [Compound 7], for which the “pharmacokinetic properties and oral bioavailability (in words)” value in data set [1] (in beagle dogs) is “good pharmacokinetic properties and oral bioavailability”. For the same molecule, in data set [1] (setting [3]), the AUC(0-inf) came to 7.69 µM·h, the Cmax was found to be 3.95 µM, the Tmax is 0.63 h and the bioavailability is 33%. In data set [1] (setting [3]), this molecule had a half-life of 2.2 h. The “Plasma protein unbound rate, SD Rat plasma” value in the data set on plasma protein came to 7.1%. Also, the “pharmacokinetic properties and oral bioavailability (in words)” value in data set [2] is “good pharmacokinetic properties and oral bioavailability”.

Source of the values: patent publication US11932652B2, “Pyrrolidinyl urea derivatives and application thereof in TrkA-related diseases” (ZHANGZHOU PIEN TZE HUANG PHARMACEUTICAL CO., LTD., priority 2018, dated 2024).
